Data on 3 compounds can be found in PMC6384922, “Potent in Vitro α-Glucosidase Inhibition of Secondary Metabolites Derived from Dryopteris cycadina” (Molecules, 2019).

For experiment [1], the target named is T1, α-glucosidase (EC3.2.1.20) (Saccharomyces cerevisiae, UniProt P07265).
T1 construct: purchased Sigma Aldrich
As to the kind of experiment: biochemical. The conditions noted are these: for IC50: α-glucosidase, mean ± SEM of three independent readings; for inhibition at 500 µM: read-out: maximum α-glucosidase inhibitory activity (% inhibition). On the procedure: The α-glucosidase (Saccharomyces cerevisiae) inhibitory assay was carried out with slight modifications according to the method described in [21, 26, 27]. For the evaluation of α-glucosidase inhibitory activity, 10 µl of freshly prepared phosphate buffer (pH 6.8) were plated in triplicate for a micro-well plate with the help of a micropipette. Then, 30 µL of α-glucosidase enzyme with a concentration of 0.017 units/mL of 70% ethanol and 10 µL of test compound solution were added to the same well plate. The plates were then incubated for 15 min at 37 °C and an initial reading was taken at 405 nm using the ELISA micro plate reader. Furthermore, 100 µl of 0.7mM PNPG substrate was added to each well of the plate and again incubated at 37 °C for 30 min, forming a yellow color. The final reading was taken again at λ max 405 nm using the ELISA plate reader. […] Each reading was taken in triplicate. The percent inhibition was calculated using the following formula, % inhibition = [(A negative control − A test sample)/A negative control] × 100, where A is absorbance.
The half-maximal inhibitory concentration values were determined using the Graphpad Prism version 7.0 software (San Diego, CA, USA. All values are represented as mean ± SEM.

The target of experiment [2] is T1, α-glucosidase (EC3.2.1.20). Further details: method as in PMID 18341288. The conditions noted are these: cited from earlier work.

Molecules are shown by their SMILES. Where “and” joins values, the source holds several entries; their conditions need not be identical. Equal values may be shown once. Read-outs that look alike come from different tables or passages of the source.

T1 sequence (P07265 whole entry): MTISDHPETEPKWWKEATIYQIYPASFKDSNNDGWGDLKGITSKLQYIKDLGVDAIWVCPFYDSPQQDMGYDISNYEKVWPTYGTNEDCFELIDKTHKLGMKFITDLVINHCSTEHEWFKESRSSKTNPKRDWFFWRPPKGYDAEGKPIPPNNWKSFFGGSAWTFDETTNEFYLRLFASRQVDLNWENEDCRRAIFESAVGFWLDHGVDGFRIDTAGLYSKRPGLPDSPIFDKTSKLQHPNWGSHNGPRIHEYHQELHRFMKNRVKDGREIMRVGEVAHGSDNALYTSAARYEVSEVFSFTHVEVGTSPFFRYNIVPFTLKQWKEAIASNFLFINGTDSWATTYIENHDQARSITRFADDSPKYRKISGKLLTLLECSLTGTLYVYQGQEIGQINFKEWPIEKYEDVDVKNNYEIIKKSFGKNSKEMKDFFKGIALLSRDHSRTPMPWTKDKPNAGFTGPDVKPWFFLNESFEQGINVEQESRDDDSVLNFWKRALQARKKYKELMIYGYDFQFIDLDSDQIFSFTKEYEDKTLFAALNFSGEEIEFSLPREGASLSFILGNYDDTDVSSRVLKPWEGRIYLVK

Consider `Cc1ccc(C2Oc3cc(O)cc(O)c3C(=O)C2O)cc1` (stereo not shown) [Compound 3, 3,5,7-trihydroxy-2-(p-tolyl) chorman-4-one], for which the concentration for half-maximal inhibition (IC50) (in general, the concentration needed to halve the response being measured) in experiment [1] (IC50 ± SEM) was 136 µM and 133 µM. The inhibition (usually how much of the control response was suppressed) at 500 µM in experiment [1] came out at 94%.

In the case of `CCC(CCC(C)C1CCC2C3CC=C4CC(OC5OC(CO)C(O)C(O)C5O)CCC4(C)C3CCC12C)C(C)C` [Compound 2, β-Sitosterol3-O-β-D-glucopyranoside], in experiment [1], the inhibition at 500 µM came to 92%. Besides, the concentration for half-maximal inhibition (IC50) in experiment [1] (read-out: IC50 ± SEM) worked out at 314 ± 4.58 µM.

In experiment [1] (IC50 ± SEM), `CC[C@H](CC[C@@H](C)[C@H]1CC[C@H]2[C@@H]3CC=C4C[C@@H](O)CC[C@]4(C)[C@H]3CC[C@]12C)C(C)C` [Compound 1, β-Sitosterol] displayed a 50% inhibitory concentration (IC50) of 143 ± 0.47 µM. In addition, the inhibition at 500 µM in experiment [1] amounted to 92.9%. Further, in experiment [2], the “α-glucosidase inhibitory activity in previous studies” value was “inactive”.
